Experimental data taken from publication PMC9804489, “Phase 1/1b Studies of UCB0599, an Oral Inhibitor of α‐Synuclein Misfolding, Including a Randomized Study in Parkinson's Disease” (Movement Disorders, 2022).
Where two headings read alike, the source gives them in different places.

Columns and labels:
[1] = UP0078 phase 1 food/ITZ study: safety and tolerability in healthy participants
Description: UP0078 was a phase 1, open‐label study to evaluate the potential effect of food on the bioavailability of UCB0599 and to test the potential effect of ITZ on the disposition of UCB0599 in HPs. A randomized, two‐way crossover design with a third fixed‐treatment period was used (Fig. S2).
Participants received a single 180 mg dose of UCB0599 on three separate occasions, with a washout period of ≥7 days between doses. The first dose was administered under fasted conditions, the second under fed conditions, and the third under fasted conditions co‐administered with ITZ (200 mg once daily, days 15–22).
The study was conducted at a phase 1 unit in the United Kingdom.
The primary objectives were to assess the potential effect of food intake (standard high‐fat, high‐calorie meal) on single‐dose PK of UCB0599 and to evaluate and compare the single‐dose PK of UCB0599 in the presence or absence of ITZ. The secondary and exploratory objectives were to evaluate the safety and tolerability of UCB0599 under fasted and fed conditions, and with/without concomitant administration of ITZ; to evaluate UCB0599 metabolite plasma PK in the presence or absence of ITZ; and to assess the potential effect of food intake on the single‐dose PK of UCB0599 metabolites.
Primary PK variables were AUC0–t , AUC0–inf, C max, and t max. Primary safety variables were the incidence of TEAEs and serious TEAEs. […]

[2] = UP0030 phase 1 SAD/MAD study: safety and tolerability in healthy participants
Description: Part 1 (Fig. S1A) was a randomized, subject‐ and investigator‐blind, placebo‐controlled study in healthy older participants (HOP). Part 2 (Fig. S1B) was an open‐label, two‐way crossover study in HPs.
Part 1 included five cohorts (1, 2, 1b, 2b, and 3) and evaluated SADs (SAD: 90, 180, 360, and 450 mg) and MADs of UCB0599 (MAD: 180 and 360 mg/day). […] The first two doses were administered as a two‐way crossover (under fasting/fed or fed/fasting conditions), and the third dose was administered to both arms under fasted conditions with 200 mg of ITZ (once daily, days −3 to 2) to assess potential drug–drug interactions.
Eligible participants were aged ≥18 years (part 1, 55–75 years for HOP; part 2, <55 years) with a body mass index (BMI) of 18–32 kg/m^2 and a body weight of ≥50 kg. The study was conducted at a phase 1 unit in Germany.
The primary objective was to evaluate the safety and tolerability of UCB0599 after the administration of single and multiple doses in HOP. The secondary objectives are to evaluate the PK of UCB0599 and its desmethyl and N‐oxide metabolites after the administration of single and multiple doses in HOP and to evaluate the PK, safety, and tolerability of UCB0599 in HPs when given a single dose alone, with food or with ITZ.
Safety variables included the incidence of any treatment‐emergent adverse event (TEAE), changes in vital signs, laboratory assessments, 12‐lead electrocardiogram (ECG) and Holter ECG assessment, and the Columbia Suicide Severity Rating Scale (C‐SSRS). PK variables included maximum plasma concentration (C max), time of maximum concentration (t max), AUC (area under the plasma concentration–time curve) from time 0 to last quantifiable concentration (AUC0–t ), AUC from time 0 to infinity (AUC0–inf), apparent total body clearance, apparent volume of distribution, and apparent elimination half‐life (t 1/2).

[3] = UP0030 phase 1 study: plasma pharmacokinetics of UCB0599 and its metabolites; assay type: in vivo, human; conditions: for AUC: read-out: AUC, GeoMean; for Cmax: read-out: C max, GeoMean
Description: Statistical evaluations for all three studies were performed using SAS version 9.4 (SAS, Cary, NC, USA), and PK data were analyzed using Phoenix WinNonlin software (Certara, Princeton, NJ, USA). Continuous variables were summarized with number of participants, mean, standard deviation, median, minimum and maximum, and confidence intervals (CI) for the mean. Categorical variables were summarized with frequency counts and percentages.

[4] = UP0030, UCB0599 180 mg/day, n=17
[5] = UP0030 part 2, fasted UCB0599 360 mg, n=3
[6] = UP0030 part 2, fed UCB0599 360 mg, n=3
[7] = human, plasma, oral, UP0030 single dose 90 mg
[8] = human, plasma, oral, UP0030 single dose 450 mg

Compound: CCC(C)n1ncn(-c2ccc(N3CCN(c4ccc(OCC5COC(Cn6cncn6)(c6ccc(Cl)cc6Cl)O5)cc4)CC3)cc2)c1=O (stereo not drawn) [ITZ, itraconazole, reference compound]
- TEAE considered related to the substance [1]: 9.1%

Compound: CCCC[C@H](Cc1c[nH]c2ccccc12)NC(=O)c1cnc(N2CCN(C)CC2)s1 [UCB0599]
- Hypersensitivity reactions ([2]; UP0030): 2 n
- Treatment‐related patterns for vital signs, ECG tracings, or laboratory findings ([2]; UP0030): no discernible UCB0599 treatment‐related patterns
- TEAE Diarrhea ([2]; UP0030, UCB0599 90 mg, n=9): 0 n (%) […]
- TEAE Drug hypersensitivity ([2]; UP0030, UCB0599 90 mg, n=9): 0 n (%) […]
- TEAE Fatigue ([2]; UP0030, UCB0599 90 mg, n=9): 0 n (%) […]
- TEAE Nasopharyngitis ([2]; UP0030, UCB0599 90 mg, n=9): 0 n (%) […]
- TEAE Diarrhea ([2]; UP0030, UCB0599 180 mg, n=17): 0 n (%) […]
- TEAE Drug hypersensitivity ([2]; UP0030, UCB0599 180 mg, n=17): 0 n (%) […]
- TEAE Fatigue ([2]; UP0030, UCB0599 180 mg, n=17): 0 n (%) […]
- TEAE Headache ([2]; UP0030, UCB0599 180 mg, n=17): 0 n (%) […]
- TEAE Myalgia ([2]; UP0030, UCB0599 180 mg, n=17): 0 n (%) […]
- TEAE Nasopharyngitis ([2]; UP0030, UCB0599 180 mg, n=17): 0 n (%) […]
- TEAE Postlumbar puncture syndrome ([2]; UP0030, UCB0599 180 mg, n=17): 0 n (%) […]
- TEAE Diarrhea [2, 4]: 0 n (%) […]
- TEAE Fatigue [2, 4]: 0 n (%) […]
- TEAE Postlumbar puncture syndrome [2, 4]: 0 n (%) […]
- TEAE Presyncope [2, 4]: 0 n (%) […]
- TEAE Drug hypersensitivity ([2]; UP0030, UCB0599 360 mg, n=18): 0 n (%) […]
- TEAE Myalgia ([2]; UP0030, UCB0599 360 mg, n=18): 0 n (%) […]
- TEAE Nasopharyngitis ([2]; UP0030, UCB0599 360 mg, n=18): 0 n (%) […]
- TEAE Presyncope ([2]; UP0030, UCB0599 360 mg, n=18): 0 n (%) […]
- TEAE Drug hypersensitivity ([2]; UP0030, UCB0599 450 mg, n=9): 0 n (%) […]
- TEAE Fatigue ([2]; UP0030, UCB0599 450 mg, n=9): 0 n (%) […]
- TEAE Myalgia ([2]; UP0030, UCB0599 450 mg, n=9): 0 n (%) […]
- TEAE Presyncope ([2]; UP0030, UCB0599 450 mg, n=9): 0 n (%) […]
- TEAE Puncture site pain ([2]; UP0030, UCB0599 450 mg, n=9): 0 n (%) […]
- Time to resolution of HSRs ([2]; UP0030, after oral antihistamines): ≤ 3 days
- Participants reporting serious TEAEs ([2]; UP0030 part 1): 4.4%
- Deaths ([2]; UP0030 part 1, all UCB0599 N=45): 0 n (%) […]
- Discontinuations due to drug hypersensitivity ([2]; UP0030 part 1, total UCB0599): 2 participants
- Participants reporting TEAEs ([2]; UP0030 part 1, total UCB0599): 66.7%
- Participants reporting severe TEAEs ([2]; UP0030 part 1, total UCB0599): 6.7%
- Participants who discontinued due to TEAEs ([2]; UP0030 part 1, total UCB0599): 11.1%
- Any TEAEs [2, 5]: 0 n (%) […]
- Deaths [2, 5]: 0 n (%) […]
- Discontinuations due to TEAEs [2, 5]: 0 n (%) […]
- Drug‐related TEAEs [2, 5]: 0 n (%) […]
- Serious TEAEs [2, 5]: 0 n (%) […]
- Severe TEAEs [2, 5]: 0 n (%) […]
- Participants reporting TEAEs ([2]; UP0030 part 2, fed UCB0599 360 mg): 33.3%
- Deaths [2, 6]: 0 n (%) […]
- Discontinuations due to TEAEs [2, 6]: 0 n (%) […]
- Drug‐related TEAEs [2, 6]: 0 n (%) […]
- Serious TEAEs [2, 6]: 0 n (%) […]
- Severe TEAEs [2, 6]: 0 n (%) […]
- Plasma steady‐state concentration achieved, on average ([3]; UP0030, 180 mg/day): ≤ 7 days
- Tmax ([3]; human, plasma, oral, UP0030, UCB0599 180 mg/day, read-out: Median t max after multiple doses): 1.5 to 3 h
- Tmax ([3]; human, plasma, oral, UP0030 single ascending doses 90–450 mg, read-out: t max range): 1.5 to 2 h
- half-life ([3]; human, plasma, oral, UP0030 single ascending doses of UCB0599, across dose groups, read-out: Apparent elimination half‐life, GeoMean range): 10.6 to 13 h
- AUC [3, 7]: 3220 ng·h/mL
- Cmax [3, 7]: 374 ng/mL
- AUC [3, 8]: 17000 ng·h/mL
- Cmax [3, 8]: 1810 ng/mL
